Assay results published in PubChem BioAssay AID248 (DTP/NCI, 2004).
Inconclusive results and toxic doses are left out. Cut-off read from the data, not from the text of the source: active = T/C of 150% or more; inactive = T/C below 125%.

Test system: L1210 leukemia ip in BDF1 mice, survival T/C
Test: NCI In Vivo Anticancer Drug Screen. Data for tumor model L1210 Leukemia (intraperitoneal) in B6D2F1 (BDF1) mice
Settings: endpoint: mean survival time, higher = longer survival
Outline: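 Each compound was tested against a transplantable tumor grown in mice. The endpoint was survival, with treated animals benchmarked against vehicle controls as a simple ratio.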

[1] = dose: 100.0 mg/kg/injection, schedule: Q04DX002 (ip), vehicle: Klucel (hydroxypropylcellulose) (HPC)
[2] = dose: 200.0 mg/kg/injection, schedule: Q04DX002 (ip), vehicle: Klucel (hydroxypropylcellulose) (HPC)
[3] = dose: 400.0 mg/kg/injection, schedule: Q04DX002 (ip), vehicle: Klucel (hydroxypropylcellulose) (HPC)
[4] = dose: 100.0 mg/kg/injection, schedule: Q01DX001 (ip), vehicle: saline
[5] = dose: 200.0 mg/kg/injection, schedule: Q01DX001 (ip), vehicle: saline
[6] = dose: 400.0 mg/kg/injection, schedule: Q01DX001 (ip), vehicle: saline
[7] = dose: 50.0 mg/kg/injection, schedule: Q01DX009 (ip), vehicle: saline with Tween-80
[8] = dose: 100.0 mg/kg/injection, schedule: Q04DX003 (ip), vehicle: saline with Tween-80
[9] = dose: 200.0 mg/kg/injection, schedule: Q04DX003 (ip), vehicle: saline with Tween-80
[10] = dose: 400.0 mg/kg/injection, schedule: Q04DX003 (ip), vehicle: saline with Tween-80
[11] = dose: 100.0 mg/kg/injection, schedule: Q01DX001 (ip), vehicle: carboxymethylcellulose (CMC)
[12] = dose: 200.0 mg/kg/injection, schedule: Q01DX001 (ip), vehicle: carboxymethylcellulose (CMC)
[13] = dose: 400.0 mg/kg/injection, schedule: Q01DX001 (ip), vehicle: carboxymethylcellulose (CMC)

Measured: T/C

COc1ccc(C(O)c2cc3ccccc3n2S(=O)(=O)c2ccccc2)cc1 (stereo not given)
inactive: [1] 95 % of control | [2] 106 % of control | [3] 98 % of control

COc1cccc(C2CCCCCC2OS(=O)(=O)c2ccc(C)cc2)c1OC (stereo not given)
inactive: dose: 100.0 mg/kg/injection, schedule: Q04DX003 (ip), vehicle: acetone 110 % of control | dose: 200.0 mg/kg/injection, schedule: Q04DX003 (ip), vehicle: acetone 98 % of control | dose: 400.0 mg/kg/injection, schedule: Q04DX003 (ip), vehicle: acetone 103 % of control

COC(=O)C(NC(=O)C(C)NC(=O)OC(C)(C)C)C(C)O (stereo not given)
inactive: [4] 101 % of control | [5] 99 % of control | [6] 101 % of control

O=[N+]([O-])c1cc(S(=O)(=O)F)ccc1O
inactive: dose: 5.0 mg/kg/injection, schedule: Q01DX001 (ip), vehicle: other 112 % of control | dose: 10.0 mg/kg/injection, schedule: Q01DX001 (ip), vehicle: other 97 % of control | dose: 20.0 mg/kg/injection, schedule: Q01DX001 (ip), vehicle: other 95 % of control | dose: 40.0 mg/kg/injection, schedule: Q01DX001 (ip), vehicle: other 101 % of control | dose: 80.0 mg/kg/injection, schedule: Q01DX001 (ip), vehicle: other 106 % of control

CSc1cc(N)nc2n[nH]nc12
inactive: dose: 100.0 mg/kg/injection, schedule: Q01DX001 (ip), vehicle: Klucel (hydroxypropylcellulose) (HPC) 97 % of control | dose: 200.0 mg/kg/injection, schedule: Q01DX001 (ip), vehicle: Klucel (hydroxypropylcellulose) (HPC) 110 % of control

CC(C)OCCS(=O)(=O)Oc1ncc(Cl)cc1Cl
inactive: dose: 12.5 mg/kg/injection, schedule: Q01DX009 (ip), vehicle: saline with Tween-80 113 % of control | dose: 25.0 mg/kg/injection, schedule: Q01DX009 (ip), vehicle: saline with Tween-80 94 % of control | [7] 96 % of control | [8] 94 % of control | [9] 96 % of control | dose: 400.0 mg/kg/injection, schedule: Q01DX009 (ip), vehicle: saline with Tween-80 90 % of control | [10] 94 % of control

Cc1ccc(S(=O)(=O)OC2COCOC2C2(OS(=O)(=O)c3ccc(C)cc3)COCOC2)cc1 (stereo not given)
inactive: [1] 101 % of control | [2] 101 % of control | [3] 104 % of control

CCN(CC)Cc1cc(C(=N)N)ccc1O
inactive: dose: 56.0 mg/kg/injection, schedule: Q01DX Z (ip), vehicle: carboxymethylcellulose (CMC) 101 % of control | dose: 83.0 mg/kg/injection, schedule: Q01DX Z (ip), vehicle: carboxymethylcellulose (CMC) 95 % of control | dose: 125.0 mg/kg/injection, schedule: Q01DX Z (ip), vehicle: carboxymethylcellulose (CMC) 98 % of control | dose: 187.5 mg/kg/injection, schedule: Q01DX Z (ip), vehicle: carboxymethylcellulose (CMC) 102 % of control

CCOC(=O)C(C(=O)CC)=P(c1ccccc1)(c1ccccc1)c1ccccc1
inactive: dose: 100.0 mg/kg/injection, schedule: Q01DX005 (ip), vehicle: Klucel (hydroxypropylcellulose) (HPC) 113 % of control | dose: 100.0 mg/kg/injection, schedule: Q01DX009 (ip), vehicle: Klucel (hydroxypropylcellulose) (HPC) 97 % of control | dose: 200.0 mg/kg/injection, schedule: Q01DX005 (ip), vehicle: Klucel (hydroxypropylcellulose) (HPC) 88 % of control | dose: 200.0 mg/kg/injection, schedule: Q01DX009 (ip), vehicle: Klucel (hydroxypropylcellulose) (HPC) 108 % of control | dose: 400.0 mg/kg/injection, schedule: Q01DX005 (ip), vehicle: Klucel (hydroxypropylcellulose) (HPC) 98 % of control | dose: 400.0 mg/kg/injection, schedule: Q01DX009 (ip), vehicle: Klucel (hydroxypropylcellulose) (HPC) 110 % of control

COC(=O)CCNc1ccccc1C(=O)OC
inactive: dose: 50.0 mg/kg/injection, schedule: Q01DX001 (ip), vehicle: carboxymethylcellulose (CMC) 100 % of control | [11] 107 % of control | [12] 113 % of control | [13] 100 % of control

CCCCCCCC(=O)NN
inactive: dose: 25.0 mg/kg/injection, schedule: Q01DX009 (ip), vehicle: other 104 % of control | dose: 50.0 mg/kg/injection, schedule: Q01DX009 (ip), vehicle: carboxymethylcellulose (CMC) 89 % of control | dose: 50.0 mg/kg/injection, schedule: Q01DX009 (ip), vehicle: other 93 % of control | [11] 117 % of control | dose: 100.0 mg/kg/injection, schedule: Q01DX009 (ip), vehicle: carboxymethylcellulose (CMC) 86 % of control | dose: 100.0 mg/kg/injection, schedule: Q01DX009 (ip), vehicle: other 98 % of control | [12] 97 % of control | dose: 200.0 mg/kg/injection, schedule: Q01DX009 (ip), vehicle: other 107 % of control | [13] 95 % of control | dose: 400.0 mg/kg/injection, schedule: Q01DX009 (ip), vehicle: other 98 % of control

Cc1csc(/N=C/c2ccc([N+](=O)[O-])o2)n1
inactive: [7] 100 % of control | dose: 100.0 mg/kg/injection, schedule: Q01DX009 (ip), vehicle: saline with Tween-80 105 % of control | [8] 103 % of control | dose: 200.0 mg/kg/injection, schedule: Q01DX009 (ip), vehicle: saline with Tween-80 101 % of control | [9] 97 % of control

CC(=O)C1(O)CCC2C3CC(C)C4=CC(=O)C=CC4(C)C3C(O)CC21C (stereo not given)
inactive: dose: 12.5 mg/kg/injection, schedule: Q04DX002 (ip), vehicle: Klucel (hydroxypropylcellulose) (HPC) 97 % of control | dose: 25.0 mg/kg/injection, schedule: Q04DX002 (ip), vehicle: Klucel (hydroxypropylcellulose) (HPC) 97 % of control | dose: 50.0 mg/kg/injection, schedule: Q04DX002 (ip), vehicle: Klucel (hydroxypropylcellulose) (HPC) 90 % of control

O=[N+]([O-])c1ccc(C2OCCO2)cc1
inactive: [11] 94 % of control | [12] 91 % of control | [13] 96 % of control

C=CCC1(Cc2ccsc2)C(=O)NC(=O)NC1=O
inactive: [11] 90 % of control | [12] 92 % of control | [13] 100 % of control

c1ccc(-c2cccc([Si](c3ccccc3)(c3ccccc3)c3cccc(-c4ccccc4)c3)c2)cc1
inactive: [8] 92 % of control | [9] 88 % of control | [10] 97 % of control

ClCc1nc2ccccc2[nH]1
inactive: dose: 50.0 mg/kg/injection, schedule: Q01DX001 (ip), vehicle: saline 101 % of control | [4] 101 % of control | dose: 100.0 mg/kg/injection, schedule: Q04DX003 (ip), vehicle: Klucel (hydroxypropylcellulose) (HPC) 105 % of control | [5] 104 % of control | dose: 200.0 mg/kg/injection, schedule: Q04DX003 (ip), vehicle: Klucel (hydroxypropylcellulose) (HPC) 102 % of control | [6] 110 % of control | dose: 400.0 mg/kg/injection, schedule: Q04DX003 (ip), vehicle: Klucel (hydroxypropylcellulose) (HPC) 98 % of control

N#CC(c1ccc(Cl)cc1)C(C/C(=N/Nc1ccc([N+](=O)[O-])cc1[N+](=O)[O-])c1ccccc1)c1ccccc1 (stereo not given)
inactive: dose: 25.0 mg/kg/injection, schedule: Q01DX001 (ip), vehicle: saline with Tween-80 91 % of control | dose: 50.0 mg/kg/injection, schedule: Q01DX001 (ip), vehicle: saline with Tween-80 93 % of control | dose: 100.0 mg/kg/injection, schedule: Q01DX001 (ip), vehicle: saline with Tween-80 95 % of control

C=COCCCCCC
inactive: dose: 100.0 mg/kg/injection, schedule: Q04DX002 (ip), vehicle: saline 103 % of control | dose: 200.0 mg/kg/injection, schedule: Q04DX002 (ip), vehicle: saline 100 % of control | dose: 400.0 mg/kg/injection, schedule: Q04DX002 (ip), vehicle: saline 90 % of control
